Literature values as cited in patent publication US20150079197A1, “MEDICINE COMPRISING COMBINATION OF GENERAL ANESTHETIC AND HYDROGEN” (MARUISHI PHARMACEUTICAL CO., LTD., priority 2012, published 2015).

Experiments:
degenerated neurons = conditions: neonatal rats, Non Patent Literature 30

Row | SMILES | increase in the apoptosis level in the cortex (developing brains; cortex, as compared with the control) [fold] | increase in the apoptosis level in the hippocampus (developing brains; hippocampus) [fold] | neurodegeneration (degenerated neurons) | neurodegeneration (developing brains; alone)
1 | FC(F)OC(Cl)C(F)(F)F (stereo not shown) [isoflurane] | 4 | 4 | dose-dependent neurodegeneration | –
2 | [N-]=[N+]=O [nitrous oxide] | – | – | – | no neurodegeneration
